Literature values, collected in US12397060B2, “pHLIP®-mediated intracellular delivery of immuno-stimulatory compounds” (University of Rhode Island Board of Trustees, priority 2019, dated 2025).

Test system: DCs, macrophages, T cells and endothelial cells sorted from B16 tumors
Conditions: stimulated ex vivo, expression highest in macrophages, followed by DCs

| Structure (SMILES) | IFN-β expression upon stimulation |
| --- | --- |
| Nc1ncnc2c1ncn2[C@@H]1O[C@@H]2COP(=O)([S-])O[C@@H]3[C@H](O)[C@@H](COP([O-])(=S)O[C@H]2[C@H]1O)O[C@H]3n1cnc2c(N)ncnc21.[Na+].[Na+] (some centres unmarked) [ML RR-S2 CDA, Dithio-(Rp, Rp)-2′,3′-CDA sodium salt] | All subsets expressed IFN-β |
| Cc1ccc2c(=O)c3cccc(CC(=O)O)c3oc2c1C [DMXAA, 5,6-Dimethylxanthenone-4-acetic acid] | All subsets expressed IFN-β |
